Entries after “also recorded” stand apart in the source; their conditions may differ.

Data set [1] concerns intestinal mammalian target of rapamycin (mTOR). The settings on record: piglet stressed with LPS; cited from earlier work.
Data set [2] concerns protein synthesis in gastrocnemius, liver and heart. The data set can be described thus: In vivo rate of tissue protein synthesis, flooding-dose technique with [3H]-L-phenylalanine. The arrangement: species or system male Wistar rats. The method, then: (§1) Water was provided ad libitum.
The in vivo rate of protein synthesis in gastrocnemius, liver and heart (ventricle only) was determined using the flooding-dose technique, exactly as described (Vary T C and Lang C H, Assessing effects of alcohol consumption on protein synthesis in striated muscles. Methods Mol Biol 447: 343-355, 2008). A P-50 catheter was placed in the left carotid artery for the withdrawal of blood. Rats were injected intravenously (IV) with [^3H]-L-phenylalanine (Phe; 150 mM, 30 μCi/ml; 1 ml/100 g body weight) and blood was collected 15 min later for determining the plasma Phe concentration and radioactivity. Thereafter, tissues were rapidly excised and a portion freeze-clamped and then stored at −70° C. The rate of protein synthesis was calculated by dividing the amount of radioactivity incorporated into protein by the plasma Phe specific radioactivity. The specific radioactivity of the plasma Phe was measured by high performance liquid chromatography (HPLC) analysis of supernatant from trichloroacetic acid (TCA) extracts of plasma. In addition, samples of fresh muscle were homogenized for Western blot and analysis of selected proteins and another piece of tissue used for qRT-PCR, as described below.

The nature of data set [3]: Blood chemistry profile, metabolic substrates and hormone (serum). Type of data set: in vivo, male Wistar rats. The method, then:
(§2) Blood was collected from the arterial catheter while rats were anesthetized and prior to injection of [^3H]-Phe. Blood was dispensed to determine standard hematological and biochemical endpoints. For hematology analyses, 250-500 μl of blood was dispensed to tubes containing EDTA (BD No. 365974; Fisher Scientific). Hematology analyses (Heska CBC-Diff Hematology Analyzer, Loveland, Colo.) included: red and white blood cell counts, hematocrit, hemoglobin, platelets, and differential leukocyte counts. Reticulocytes were counted manually using methylene blue stain. In addition, 900 μl blood was dispensed to a tube containing 100 μl of 0.109 M sodium citrate (BD Medical No. 363083; Fisher Scientific) for measurement of prothrombin time (BBL Fibrometer System, Cockeysville, Md.). The remaining blood was dispensed to a silicone-coated collection tube (BD No. 366381; Fisher Scientific) and allowed to clot. Clotted blood samples were centrifuged in a Beckman Coulter Allegra X-12R centrifuge at 3500 rpm for 5 min at 4° C., and the serum was collected and stored. Biochemical analyses on serum was performed on a Cobas Mira Plus Chemistry Analyzer (Diamond Diagnostics, Holliston, Mass.) and included: total bilirubin, glucose, aspartate aminotransferase, alanine aminotransferase, lactate dehydrogenase, albumin, calcium, creatinine, urea, phosphate, total cholesterol, chloride, and total protein. Serum sodium and potassium were analyzed by flame photometer (IL940; Instrumentation Laboratory, Lexington, Mass.). Triglycerides and free fatty acids (FFAs) were determined colorimetrically (Abcam, Cambridge, Mass.; Wako Diagnostics, Richmond, Va., respectively). Insulin was determined by ELISA (Alpco diagnostics, Salem, N.H.). The homeostatic model assessment of insulin resistance (HOMA-IR) was calculated to provide an estimate of whole-body insulin resistance (Turner R C, Holman R R, Matthews D, Hockaday T D and Peto J. Insulin deficiency and insulin resistance interaction in diabetes: estimation of their relative contribution by feedback analysis from basal plasma insulin and glucose concentrations. Metabolism 28: 1086-1096,1979).

Data set [4] is described as follows: Hematological profile. It counts as in vivo, male Wistar rats. The settings on record: means ± SEM. The method, then: as §2
For data set [5], the system named is gastrocnemius of hindlimb-immobilized rats. Nature of the data set: Muscle atrophy and recovery after unilateral hindlimb immobilization (gastrocnemius weight). Type of data set: in vivo, male Wistar rats.
Source text: as §1

The conditions of data set [6]: rat, in vivo.
Source text: Animal protocols. The experiments described herein were broadly organized into two experimental series. Both studies used male Wistar rats (Charles River Breeding Laboratories, Cambridge, Mass.) which acclimated for 1 week in a controlled environment. Rats were shipped at 350-375 g and were approximately 12 wks of age. Water and standard rat chow were provide ad libitum.
The following custom diets were commercially prepared (Dytes, Bethlehem, Pa.): control diet (AIN93M), or isocaloric, isonitrogenous diets supplemented with α-hydroxy-isocaproic acid (HICA) or leucine (Leu) (Table 1). […] Therefore, animals were provided the dietary intervention for a period of 6 days prior to hindlimb immobilization.
The foot was positioned in plantar-flexion to induce maximal atrophy of the gastrocnemius and rats received 10 ml of 0.9% warmed (37° C.) sterile saline for resuscitation. […] Consequently, the contralateral limb served as the control in all subsequent experiments. After casting, rats were housed individually and were continued to be pair-fed for a period of 7 days. Water was provided ad libitum. On day 7 after casting, rats were anesthetized with pentobarbital and the cast atraumatically and rapidly (<2 min) removed (Stryker Instruments, Kalamzoo, Mich.).

`O=C(O)CCC(=O)C(=O)O` [AKG, α-ketoglutarate]: in data set [1], the Crypt depth entry is reported as “reduced crypt depth”, the “Phosphorylation of intestinal mTOR” value was “increased phosphorylation” and the Villous height entry is “increased villous height”.
On to `CC(C)C[C@H](N)C(=O)O` [Leucine, leucine], for which the “Protein synthesis in the previously immobilized muscle compared to contralateral uncasted muscle” value in data set [2] (day 14 of recovery, listed as Leu) is “not different from the uncasted muscle; also recorded: returned to basal values”. The “In-vivo-determined tissue protein synthesis: Liver” value in data set [2] (freely fed rats, means ± SEM, all studies combined, no unit in table) is 22.51 ± 0.88. For the same compound, the “In-vivo-determined tissue protein synthesis: Heart” value in data set [2] (freely fed rats, means ± SEM, all studies combined, no unit in table (text b163: nmol Phe/h/mg protein)) is 2.93 ± 0.11. The “Immobilization (casting)-induced decrease in muscle protein synthesis” value in data set [2] (gastrocnemius, 7 days of immobilization, listed as Leu) is reported as “decreased protein synthesis to the same extent; also recorded: failed to prevent the casting-induced decrease in protein synthesis”. Besides, in data set [2] (uncasted gastrocnemius), the “Protein synthesis in the uncasted muscle compared to control-fed rats” value was “did not differ”. In data set [3] (ELISA, means ± SEM), this compound registered an Insulin of 3.64 ± 0.32 c ng/ml. The “HOMA-IR (homeostatic model assessment of insulin resistance)” value in data set [3] (calculated from insulin and glucose, means ± SEM) is 47.7 ± 4.6b. In data set [3] (means ± SEM), this compound displayed a Triglycerides of 667 ± 52 µmol/L. In addition, in data set [3] (rat, in vivo), the “HOMA-IR compared to control rats or those fed a HICA-containing diet” value is on record as “significantly greater”; the “Markers of renal function (creatinine and BUN) compared to control values” is recorded as “generally unaffected”; the “Serum phosphorus concentration, elevation compared to control values” stood at 18%; the “Serum potassium concentration compared to control- or HICA-fed rats” value was “lower”. For the same compound, in data set [3] (serum, means ± SEM), the ALT amounted to 24 ± 1 U/L, the AST was found to be 68 ± 4 U/L, the Albumin came to 3.42 ± 0.03 g/dL and the BUN is on record as 16.2 ± 0.5a mg/dL. Also, in data set [3] (serum, means ± SEM), the “Bilirubin, total” value is given as 0.3 ± 0.02 mg/dL; the Calcium was 9.6 ± 0.1 mg/dL; the Chloride was found to be 100 ± 1 mmol/L; the Cholesterol came to 63 ± 4 mg/dL. In addition, in data set [3] (serum, means ± SEM), the Creatinine is reported as 0.3 ± 0.01 mg/dL, the Glucose is 214 ± 8 mg/dL, the LDH is 169 ± 21 U/L and the Phosphorous stood at 7.0 ± 0.2b mg/dL. For the same compound, in data set [3] (serum, means ± SEM), the Potassium is 4.1 ± 0.1b mmol/L and the “Protein, total” value is recorded as 5.0 ± 0.1 g/dL. Also, the Sodium in data set [3] (serum, means ± SEM, all studies combined) is 140 ± 1 mmol/L. In data set [4] (blood), this compound yielded a Hematocrit of 41 ± 1%, a Hemoglobin of 15.7 ± 0.3 g/dL, a Lymphocytes of 73 ± 3% and an MCH of 17.9 ± 0.2 pg. Further, in data set [4] (blood), the MCV stood at 47 ± 1 fL, the Neutrophils is recorded as 23 ± 3%, the Platelets is 1206 ± 56 103/μl and the RBC was 8.98 ± 0.28 106/μl. Further, the WBC in data set [4] (blood) is given as 2.7 ± 0.2 103/μl. Also, the “Protime (prothrombin time)” value in data set [4] (citrated blood) worked out at 18 ± 1 s. For the same compound, the “Muscle regrowth (gastrocnemius mass) 7 days after removal of the cast” value in data set [5] (7 days immobilization + 7 days recovery, compared to control diet) is “not altered”. Moreover, the “Decrease in gastrocnemius mass by immobilization” value in data set [5] (7 days of cast immobilization, versus contralateral uncasted limb) was 0.57 ± 0.08 g. In addition, the “Mass of previously immobilized gastrocnemius compared to contralateral uncasted muscle” value in data set [5] (recovery day 14, listed as Leu) is on record as “a reduction in mass of the previously immobilized muscle was still detected; also recorded: partial recovery of gastrocnemius mass”. In addition, the “Kidney weight compared between diets” value in data set [6] is given as “did not differ”.

The record behind these values is US20140037604A1, “NUTRITIONAL COMPOSITIONS COMPRISING ALPHA-HYDROXYISOCAPROIC ACID” (NESTEC S.A., priority 2011, published 2014).
